Activity calls are given as the source filed them. No cut-off for these calls is given here.
Legend:
RPTEC [1] = assay: Antiinflammatory activity against LPS-induced human RPTEC cells assessed as reduction in iNOS gene expression at 26 uM incubated for 24 hrs by qPCR analysis relative to control; assay type: functional; set-up: scale not given: the % may be the effect or the level left
RPTEC [2] = assay: Effect on nitrate level in LPS-induced human RPTEC cells at 26 uM incubated for 24 hrs by microplate reader analysis; assay type: functional, cell-based
RPTEC [3] = assay: Antiinflammatory activity against LPS-induced human RPTEC cells assessed as reduction in total NO level at 26 uM incubated for 24 hrs by microplate reader analysis relative to control; assay type: functional; set-up: scale not given: the % may be the effect or the level left
RPTEC [4] = assay: Antiinflammatory activity in LPS-induced human RPTEC cells assessed as decrease in IL6 gene expression at 26 uM incubated for 24 hrs by qPCR analysis relative to control; assay type: functional; set-up: scale not given: the % may be the effect or the level left
RPTEC [5] = assay: Cytotoxicity against human RPTEC cells assessed as reduction in cell viability at 26 uM incubated for 24 hrs in presence of LPS by MTT assay; assay type: toxicity, cell-based
RPTEC [6] = assay: Cytotoxicity against human RPTEC cells assessed as reduction in cell viability at 26 uM incubated for 24 hrs in absence of LPS by MTT assay; assay type: toxicity, cell-based
RPTEC [7] = assay: Effect on total NO level in human RPTEC cells at 26 uM incubated for 24 hrs by microplate reader analysis; assay type: functional, cell-based
[8] = Downregulation of TNF-alpha gene expression in human RPTEC cells at 26 uM incubated for 24 hrs by qPCR analysis relative to control; assay type: functional
RPTEC [9] = assay: Antiinflammatory activity against LPS-induced human RPTEC cells assessed as reduction in nitrite level at 26 uM incubated for 24 hrs by microplate reader analysis relative to control; assay type: functional; set-up: scale not given: the % may be the effect or the level left
RPTEC [10] = assay: Effect on nitrite level in human RPTEC cells at 26 uM incubated for 24 hrs by microplate reader analysis; assay type: functional, cell-based
RPTEC [11] = assay: Antiinflammatory activity against LPS-induced human RPTEC cells assessed as reduction in COX-2 gene expression at 26 uM incubated for 24 hrs by qPCR analysis relative to control; assay type: functional; set-up: scale not given: the % may be the effect or the level left
RPTEC [12] = assay: Antiinflammatory activity in LPS-induced human RPTEC cells assessed as downregulation of TNFalpha gene expression at 26 uM incubated for 24 hrs by qPCR analysis relative to control; assay type: functional
RPTEC [13] = assay: Effect on nitrate level in human RPTEC cells at 26 uM incubated for 24 hrs by microplate reader analysis; assay type: functional, cell-based
RPTEC [14] = assay: Effect on IL-6 gene expression in human RPTEC cells at 26 uM incubated for 24 hrs by qPCR analysis; assay type: functional, cell-based
RPTEC [15] = assay: Effect on iNOS gene expression in human RPTEC cells at 26 uM incubated for 24 hrs by qPCR analysis; assay type: functional, cell-based
[16] = Downregulation of IL-1beta gene expression in human RPTEC cells at 26 uM incubated for 24 hrs by qPCR analysis relative to control; assay type: functional
RPTEC [17] = assay: Antiinflammatory activity in LPS-induced human RPTEC cells assessed as decrease in IL-1beta gene expression at 26 uM incubated for 24 hrs by qPCR analysis relative to control; assay type: functional; set-up: scale not given: the % may be the effect or the level left
[18] = Downregulation of COX-2 gene expression in human RPTEC cells at 26 uM incubated for 24 hrs by qPCR analysis relative to control; assay type: functional
RPTEC [19] = assay: Effect on COX-2 gene expression in human RPTEC cells at 26 uM incubated for 24 hrs by qPCR analysis; assay type: functional, cell-based
RPTEC [20] = assay: Effect on IL-1beta gene expression in human RPTEC cells at 26 uM incubated for 24 hrs by qPCR analysis; assay type: functional, cell-based
RAW264.7 = assay: Inhibition of NO production in LPS-induced mouse RAW264.7 cells incubated for 24 hrs by absorbance based assay; assay type: functional, cell-based; settings: RAW264.7, 24 h
RPTEC [21] = assay: Upregulation of COX-2 gene expression in human RPTEC cells at 26 uM incubated for 24 hrs by qPCR analysis; assay type: functional, cell-based
RPTEC [22] = assay: Upregulation of IL-1beta gene expression in human RPTEC cells at 26 uM incubated for 24 hrs by qPCR analysis; assay type: functional, cell-based
RPTEC [23] = assay: Upregulation of IL-6 gene expression in human RPTEC cells at 26 uM incubated for 24 hrs by qPCR analysis; assay type: functional, cell-based
RPTEC [24] = assay: Effect on nitrate level in LPS-induced human RPTEC cells at 28 uM incubated for 24 hrs by microplate reader analysis; assay type: functional, cell-based
RPTEC [25] = assay: Effect on COX-2 gene expression in human RPTEC cells at 28 uM incubated for 24 hrs by qPCR analysis; assay type: functional, cell-based
RPTEC [26] = assay: Antiinflammatory activity against LPS-induced human RPTEC cells assessed as reduction in nitrite level at 28 uM incubated for 24 hrs by microplate reader analysis relative to control; assay type: functional; set-up: scale not given: the % may be the effect or the level left
RPTEC [27] = assay: Antiinflammatory activity against LPS-induced human RPTEC cells assessed as reduction in COX-2 gene expression at 28 uM incubated for 24 hrs by qPCR analysis relative to control; assay type: functional; set-up: scale not given: the % may be the effect or the level left
RPTEC [28] = assay: Antiinflammatory activity in LPS-induced human RPTEC cells assessed as downregulation of TNFalpha gene expression at 28 uM incubated for 24 hrs by qPCR analysis relative to control; assay type: functional
RPTEC [29] = assay: Antiinflammatory activity against LPS-induced human RPTEC cells assessed as reduction in iNOS gene expression at 28 uM incubated for 24 hrs by qPCR analysis relative to control; assay type: functional; set-up: scale not given: the % may be the effect or the level left
RPTEC [30] = assay: Antiinflammatory activity in LPS-induced human RPTEC cells assessed as decrease in IL6 gene expression at 28 uM incubated for 24 hrs by qPCR analysis relative to control; assay type: functional; set-up: scale not given: the % may be the effect or the level left
[31] = Downregulation of TNF-alpha gene expression in human RPTEC cells at 28 uM incubated for 24 hrs by qPCR analysis relative to control; assay type: functional
RPTEC [32] = assay: Antiinflammatory activity in LPS-induced human RPTEC cells assessed as decrease in IL-1beta gene expression at 28 uM incubated for 24 hrs by qPCR analysis relative to control; assay type: functional; set-up: scale not given: the % may be the effect or the level left

For `CC1(C)Oc2ccc(CC3=C(c4ccc(O)cc4)C(=O)OC3=O)cc2CC1O` (stereo not given), the Activity (RPTEC [1]) was 67%, the Activity (RPTEC [2]) was “inactive” and the Activity (RPTEC [3]) was ~35%. The Activity (RPTEC [4]) was 55%, the Activity (RPTEC [5]) was “Non-Toxic” and the Activity (RPTEC [6]) was “Non-Toxic”. The Activity (RPTEC [7]) was “inactive”, the Activity [8] was ~38% and the Activity (RPTEC [9]) was 45%. The Activity (RPTEC [10]) was “inactive”, the Activity (RPTEC [11]) was 61% and the Activity (RPTEC [12]) was 67%. The Activity (RPTEC [13]) was “inactive”, the Activity (RPTEC [14]) was “inactive” and the Activity (RPTEC [15]) was “inactive”. For the same compound, the Activity [16] was 24%, the Activity (RPTEC [17]) was 61% and the Activity [18] was ~20%.
For `CC1(C)Oc2ccc(CC3=C(c4ccc(O)cc4)C(=O)OC3=O)cc2C[C@@H]1O`, the Activity (RPTEC [1]) was 47%, the Activity (RPTEC [2]) was “inactive” and the Activity (RPTEC [19]) was “inactive”. For the same compound, the Activity (RPTEC [3]) was ~33%, the Activity (RPTEC [4]) was 48% and the Activity (RPTEC [5]) was “Non-Toxic”. For the same compound, the Activity (RPTEC [6]) was “Non-Toxic”, the Activity (RPTEC [7]) was “inactive” and the Activity (RPTEC [20]) was “inactive”. The Activity (RPTEC [9]) was 45%, the Activity (RPTEC [10]) was “inactive” and the Activity (RPTEC [11]) was 49%. The Activity (RPTEC [12]) was 57%, the Activity (RPTEC [13]) was “inactive” and the Activity (RPTEC [14]) was “inactive”. For the same compound, the Activity (RPTEC [15]) was “inactive” and the Activity (RPTEC [17]) was 52%.
For `CC1(C)Oc2ccc(CC3=C(c4ccc(O)cc4)C(=O)NC3=O)cc2C[C@@H]1O`, the Activity (RPTEC [1]) was 52%, the Activity (RPTEC [2]) was “inactive” and the Activity (RPTEC [19]) was “inactive”. The Activity (RPTEC [3]) was ~18%, the IC50 (RAW264.7) was 0.78 µM and the Activity (RPTEC [4]) was 39%. For the same compound, the Activity (RPTEC [5]) was “Non-Toxic”, the Activity (RPTEC [6]) was “Non-Toxic” and the Activity (RPTEC [7]) was “inactive”. The Activity (RPTEC [20]) was “inactive”, the Activity (RPTEC [9]) was 24% and the Activity (RPTEC [10]) was “inactive”. For the same compound, the Activity (RPTEC [11]) was 52%, the Activity (RPTEC [12]) was 58% and the Activity (RPTEC [13]) was “inactive”. For the same compound, the Activity (RPTEC [14]) was “inactive”, the Activity (RPTEC [15]) was “inactive” and the Activity (RPTEC [17]) was 52%.
For `CC1(C)Oc2ccc(CC3=C(c4ccc(O)cc4)C(=O)NC3=O)cc2CC1O` (racemic), the Activity (RPTEC [1]) was 57%, the Activity (RPTEC [2]) was “inactive” and the Activity (RPTEC [3]) was ~37%. The Activity (RPTEC [4]) was 44%, the Activity (RPTEC [5]) was “Non-Toxic” and the Activity (RPTEC [21]) was “Active”. The Activity (RPTEC [6]) was “Non-Toxic”, the Activity (RPTEC [22]) was “Active” and the Activity (RPTEC [7]) was “inactive”. For the same compound, the Activity (RPTEC [9]) was 45%, the Activity (RPTEC [23]) was “Active” and the Activity (RPTEC [10]) was “inactive”. The Activity (RPTEC [11]) was 53%, the Activity (RPTEC [12]) was 44% and the Activity (RPTEC [13]) was “inactive”. For the same compound, the Activity (RPTEC [15]) was “inactive” and the Activity (RPTEC [17]) was 52%.
For `COc1ccc2c(c1)c(CC(=O)O)c(C)n2C(=O)c1ccc(Cl)cc1` [INDOMETHACIN], the Activity (RPTEC [24]) was “inactive”, the Activity (RPTEC [25]) was “inactive” and the Activity (RPTEC [26]) was 45%. The Activity (RPTEC [27]) was 61%, the IC50 (RAW264.7) was 37.5 µM and the Activity (RPTEC [28]) was 64%. For the same compound, the Activity (RPTEC [29]) was 59%, the Activity (RPTEC [30]) was 57% and the Activity [31] was ~38%. The Activity (RPTEC [32]) was 56%.

From ChEMBL document CHEMBL5584308, “Total Synthesis and Anti-inflammatory Activity of Asperjinone and Asperimide C” (J Nat Prod, 2024)
